Experimental data from patent US12448388B2, “PRMT5 inhibitors and uses thereof” (Gilead Sciences, Inc., priority 2023, dated 2025).
Where two headings read alike, the source gives them in different places.

Tested on: HCT116 MTAP-deleted cell lines
Experiment: Cell viability assay (CellTiter-Glo, 7 days), HCT116 MTAP-deleted
Format: cell-based
Settings: Homo sapiens, HCT-116, HCT116 MTAP-deleted, class symbols, read-out: CC50
Description: Control compounds were analyzed in parallel each time for quality control. In Brief, on Day -1, a serial dilution of stock compounds in DMSO was performed using BioMek liquid handlers and dispensed using Echo acoustic dispenser into 384 well plates. Both tool compounds and sample compounds were spotted in the same plate for a dose response of PRMT5 inhibitors. Compound plates were stored as frozen until the cells were ready for seeding. […] After equilibrating the plate in room temperature, the cells were incubated for 7 days inside the sealed incubator set at 37° C. with 90% humidity and 5% CO2. On Day 7, the viability of cells was measured using a CTG assay kit (CellTitre-Glo;Promega cat no. G7573). Shortly, 40 μl per well of luminescent cell viability assay reagent were dispensed using EL460 liquid dispenser 5 μl cassette. CTG luminescence signal was measured using an EnVision plate reader (PerkinElmer) in accordance with manufacturer's instruction. […] Selectivity with * is artificially high due to limited solubility of the compound hampering accurate measurement of WT CC50.

SMILES | CC50 (cell viability assay) [nM] | CC50 (cell viability) [nM]
CN(C(=O)c1ccc2nc(N)c3cncn3c2c1)[C@@H]1COc2cc(C#CC34CCC(CC3)O4)ccc21 [Ff-528, (S)—N-(6-((7-oxabicyclo[2.2.1]heptan-1-yl)ethynyl)-2,3-dihydrobenzofuran-3-yl)-4-amino-N-methylimidazo[1,5-a]quinoxaline-8-carboxamide] | 100 to 1000 | 
CC(C)N(Cc1ccc(-c2ccc(OC(F)F)cc2)cc1F)C(=O)c1cc2c(cc1F)nc(N)c1cncn12 [Ff-591, 4-amino-N-((4′-(difluoromethoxy)-3-fluoro-[1,1′-biphenyl]-4-yl)methyl)-7-fluoro-N-isopropylimidazo[1,5-a]quinoxaline-8-carboxamide] | < 100 | 
COc1cc(C(F)(F)F)ccc1[C@@H](C)N(C)C(=O)c1cc2c(cc1F)nc(N)c1cncn12 [Ff-535, (R)-4-amino-7-fluoro-N-(1-(2-methoxy-4-(trifluoromethyl)phenyl)ethyl)-N-methylimidazo[1,5-a]quinoxaline-8-carboxamide] | 100 to 1000 | 
Nc1nc2cc(F)c(C(=O)N3CC4CCC(C4)C3c3ccc(C(F)(F)F)cn3)cc2n2cncc12 (centres unmarked) [Ff-512, (4-amino-7-fluoroimidazo[1,5-a]quinoxalin-8-yl)(2-(5-(trifluoromethyl)pyridin-2-yl)-3-azabicyclo[3.2.1]octan-3-yl)methanone] | 100 to 1000 | 
C#Cc1ccc2c(c1)OC[C@H]2N(C)C(=O)c1cc2c(cc1F)nc(N)c1cncn12 [Ff-506, (S)-4-amino-N-(6-ethynyl-2,3-dihydrobenzofuran-3-yl)-7-fluoro-N-methylimidazo[1,5-a]quinoxaline-8-carboxamide] | < 100 | 
CN(C(=O)c1cc2c(cc1F)nc(N)c1cncn12)[C@@H]1COc2cc(C3(C)CC3(F)F)ccc21 (stereo partly drawn) [Ff-575, 4-amino-N-((3S)-6-(2,2-difluoro-1-methylcyclopropyl)-2,3-dihydrobenzofuran-3-yl)-7-fluoro-N-methylimidazo[1,5-a]quinoxaline-8-carboxamide] | < 100 | 
Nc1nc2cc(F)c(C(=O)N3CCCC4OCc5cc(C(F)(F)F)ccc5C43)cc2n2cncc12 (centres unmarked) [Ff-43, (4-amino-7-fluoroimidazo[1,5-a]quinoxalin-8-yl)(8-(trifluoromethyl)-2,3,4,4a,6,10b-hexahydro-1H-isochromeno[4,3-b]pyridin-1-yl)methanone] |  | < 100
CN(C(=O)c1cc2c(cc1F)nc(N)c1cncn12)[C@@H]1COc2cc(C#N)ccc21 [Ff-269, (S)-4-amino-N-(6-cyano-2,3-dihydrobenzofuran-3-yl)-7-fluoro-N-methylimidazo[1,5-a]quinoxaline-8-carboxamide] |  | < 100
C[C@@H]1COC[C@H](c2ccc(C(F)(F)F)cn2)N1C(=O)c1cc2c(cc1F)nc(N)c1cncn12 [Ff-131, (4-amino-7-fluoroimidazo[1,5-a]quinoxalin-8-yl)((3R,5S)-3-methyl-5-(5-(trifluoromethyl)pyridin-2-yl)morpholino)methanone] |  | < 100
Nc1nc2ccc(C(=O)N3C[C@@H](F)C[C@@H]4Oc5cc(C(F)(F)F)ccc5[C@@H]43)cc2n2cncc12 [Ff-649, (4-aminoimidazo[1,5-a]quinoxalin-8-yl)((3S,4aS,9bS)-3-fluoro-7-(trifluoromethyl)-3,4,4a,9b-tetrahydrobenzofuro[3,2-b]pyridin-1(2H)-yl)methanone] | < 100 | 
CC(=O)N(C)N(Cc1ccc(C(F)(F)F)cc1Cl)C(=O)c1cc2c(cc1F)nc(N)c1cncn12 [Fb-1, N′-acetyl-4-amino-N-(2-chloro-4-(trifluoromethyl)benzyl)-7-fluoro-N′-methylimidazo[1,5-a]quinoxaline-8-carbohydrazide] |  | < 100
Nc1nc2cc(F)c(C(=O)N3CCC[C@@H]4Oc5cc(OC(F)F)c(F)cc5[C@@H]43)cc2n2cncc12 (racemic) [Ff-157, rac-(4-amino-7-fluoroimidazo[1,5-a]quinoxalin-8-yl)((4aS,9bS)-7-(difluoromethoxy)-8-fluoro-3,4,4a,9b-tetrahydrobenzofuro[3,2-b]pyridin-1(2H)-yl)methanone] |  | < 100
COC1(C#Cc2ccc3c(c2)OC[C@H]3N(C)C(=O)c2cc3c(cc2F)nc(N)c2cncn23)CCC1 [Ff-517, (S)-4-amino-7-fluoro-N-(6-((1-methoxycyclobutyl)ethynyl)-2,3-dihydrobenzofuran-3-yl)-N-methylimidazo[1,5-a]quinoxaline-8-carboxamide] | 100 to 1000 | 
Nc1nc2cc(F)c(C(=O)N(Cc3ccc(C(F)(F)F)cc3F)c3cnn4c3CCC4)cc2n2cncc12 [Ff-285, 4-amino-N-(5,6-dihydro-4H-pyrrolo[1,2-b]pyrazol-3-yl)-7-fluoro-N-(2-fluoro-4-(trifluoromethyl)benzyl)imidazo[1,5-a]quinoxaline-8-carboxamide] |  | < 100
CN(C(=O)c1cc2c(cc1F)nc(N)c1cncn12)[C@@H]1COc2cc(C3CC34CCC4)ccc21 (stereo partly drawn) [Ff-476, 4-amino-7-fluoro-N-methyl-N-((3S)-6-(spiro[2.3]hexan-1-yl)-2,3-dihydrobenzofuran-3-yl)imidazo[1,5-a]quinoxaline-8-carboxamide] | 100 to 1000 | 
C[C@@H]1CN(C(=O)c2cc3c(cc2F)nc(N)c2cncn23)[C@H]2c3ccc(C(F)(F)F)cc3C[C@H]2O1 (single isomer, unassigned) [Ff-77] |  | < 100
CN(C(=O)c1ccc2nc(N)c3cncn3c2c1)[C@@H]1COc2cc(C(F)(F)F)c(F)cc21 [Ff-353, (S)-4-amino-N-(5-fluoro-6-(trifluoromethyl)-2,3-dihydrobenzofuran-3-yl)-N-methylimidazo[1,5-a]quinoxaline-8-carboxamide] |  | < 100
Cc1ncc2c(N)nc3ccc(C(=O)N(C)[C@@H]4COc5cc(C(F)(F)F)c(F)cc54)cc3n12 [Ff-352, (S)-4-amino-N-(5-fluoro-6-(trifluoromethyl)-2,3-dihydrobenzofuran-3-yl)-N,1-dimethylimidazo[1,5-a]quinoxaline-8-carboxamide] |  | < 100
CN(C(=O)c1cc2c(cc1F)nc(N)c1cncn12)C1COc2cc3c(cc21)CCC3 (centres unmarked) [Ff-459, 4-amino-7-fluoro-N-methyl-N-(3,5,6,7-tetrahydro-2H-indeno[5,6-b]furan-3-yl)imidazo[1,5-a]quinoxaline-8-carboxamide] | < 100 | 
Nc1nc2cc(F)c(C(=O)N3CCO[C@@H]4Cc5cc(C6CC6)ccc5[C@@H]43)cc2n2cncc12 [Ff-236, (4-amino-7-fluoroimidazo[1,5-a]quinoxalin-8-yl)((4aS,9aR)-7-cyclopropyl-2,3,9,9a-tetrahydroindeno[2,1-b][1,4]oxazin-4(4aH)-yl)methanone] |  | 100 to 1000
Nc1nc2cc(F)c(C(=O)N(Cc3ccc(C(F)(F)F)cc3F)c3cnn4ccccc34)cc2n2cncc12 [Ff-424, 4-amino-7-fluoro-N-[[2-fluoro-4-(trifluoromethyl)phenyl]methyl]-N-pyrazolo[1,5-a]pyridin-3-yl-imidazo[1,5-a]quinoxaline-8-carboxamide] | < 100 | 
CN(C(=O)c1ccc2nc(N)c3cncn3c2c1)[C@@H]1COCc2nc(C(F)(F)F)ccc21 [Ff-302, (S)-4-amino-N-methyl-N-(2-(trifluoromethyl)-5,8-dihydro-6H-pyrano[3,4-b]pyridin-5-yl)imidazo[1,5-a]quinoxaline-8-carboxamide] |  | < 100
CN(Cc1ccc(Br)c(C(F)F)c1)C(=O)c1cc2c(cc1F)nc(N)c1cncn12 [Ff-596, 4-amino-N-(4-bromo-3-(difluoromethyl)benzyl)-7-fluoro-N-methylimidazo[1,5-a]quinoxaline-8-carboxamide] | 100 to 1000 | 
Nc1nc2cc(F)c(C(=O)N3CCC[C@@H]4Oc5cc(OC(F)(F)F)c(F)cc5[C@@H]43)cc2n2cncc12 (single isomer, unassigned) [Ff-396] | < 100 | 
CN(C(=O)c1cc2c(cn1)nc(N)c1cncn12)[C@@H](c1ccc(OC(F)(F)F)cc1F)C(F)F [Fb-12, (S)-4-amino-N-(2,2-difluoro-1-(2-fluoro-4-(trifluoromethoxy)phenyl)ethyl)-N-methylimidazo[1,5-a]pyrido[3,4-e]pyrazine-8-carboxamide] |  | 100 to 1000
COc1ccc2c(c1F)CO[C@H]1CCCN(C(=O)c3cc4c(cc3F)nc(N)c3cncn34)[C@@H]21 (racemic) [Ff-299, Rac-(4-amino-7-fluoroimidazo[1,5-a]quinoxalin-8-yl)((4aS,10bS)-7-fluoro-8-methoxy-2,3,4,4a,6,10b-hexahydro-1H-isochromeno[4,3-b]pyridin-1-yl)methanone] |  | < 100
Nc1nc2cc(F)c(C(=O)N3CC[C@H]4C[C@@H]3c3ccc(Cl)nc34)cc2n2cncc12 [Ff-595, (4-amino-7-fluoroimidazo[1,5-a]quinoxalin-8-yl)((5R,9S)-2-chloro-5,7,8,9-tetrahydro-6H-5,9-methanopyrido[3,2-c]azepin-6-yl)methanone] | 100 to 1000 | 
CN(C(=O)c1ccc2nc(N)c3cncn3c2c1)[C@@H]1COc2cc(-c3cnn(C(F)(F)F)c3)ccc21 [Ff-203, (S)-4-amino-N-methyl-N-(6-(1-(trifluoromethyl)-1H-pyrazol-4-yl)-2,3-dihydrobenzofuran-3-yl)imidazo[1,5-a]quinoxaline-8-carboxamide] |  | < 100
Nc1nc2cc(F)c(C(=O)N3CCO[C@@H]4Cc5c(ccc(C(F)F)c5F)[C@@H]43)cc2n2cncc12 [Ff-169, (4-amino-7-fluoroimidazo[1,5-a]quinoxalin-8-yl)((4aS,9aR)-7-(difluoromethyl)-8-fluoro-2,3,9,9a-tetrahydroindeno[2,1-b][1,4]oxazin-4(4aH)-yl)methanone] |  | < 100
